# Experiments:
# [1] = test system: fungal biofilms (C. albicans); test: biofilm assays (sustained inhibition and/or disruption), fungal; type: cell-based, Candida albicans; details: for anti-biofilm properties against fungal biofilms: administered individually; for anti-biofilm properties against fungal biofilms / effect on fungal biofilm growth: in at least one of the two biofilm assays
# Method: Other amino acids in the blood of animals could combat bacterial and fungal biofilm and therefore may be useful in treating these bacterial and fungal infections that would lie on the external surfaces of infected animals such as humans and could also be used to combat these pathogens on instruments and surfaces that need to be treated. Two types of biofilm assays were performed: a sustained inhibition assay and a disruption assay. The sustained inhibition assay assessed the compound's ability to prevent biofilm development throughout all stages of biofilm formation, while the disruption assay assessed the compound's ability to break up an existing mature biofilm. For fungal biofilm assays, all solutions were prepared in RPMI 1640 medium. All bacterial biofilm solutions were prepared in Tryptic Soy Broth (TSB), supplemented with 1% glucose (henceforth referred to as TSB-G). All subsequent procedures were performed in a manner that maintained sterility. […] Amino acids were also tested in combinations. Compound solutions were homogenized with gentle agitation in the dark (4° C., 24 hours) before use. Fungal strains were streaked on Yeast Peptone Dextrose (YPD) agar plates and incubated at 30° C. for 48 hours. A single colony from each strain to be tested was inoculated into YPD broth and grown for 12 hours, at 30° C., shaking at 225 rpm. For the fungal biofilm inhibition assay, 1 μl of saturated overnight cell culture was added to either 80 μL of RPMI-1640 or RPMI-1640 supplemented with the amino acid compound solution to be tested, in a 384-well plate. The cells were allowed to adhere to the plate for 90 minutes at 37° C. shaking at 350 rpm. Loosely bound cells were washed once with phosphate buffered saline (PBS) and 80 μl of RPMI-1640, or RPMI-1640 supplemented with the amino acid compound solution was added to the plate. The plate was further incubated for 24 hours at 37° C. shaking at 350 rpm. Media was carefully aspirated and the biofilm was measured by optical density at 600 nm. Twelve replicates were performed for each tested condition and the reported values are normalized to the control (RPMI-1640 media only). For the fungal biofilm disruption assays, 80 μL of RPMI-1640 was added to the plate, along with 1 μL of overnight cell culture. The cells were allowed to adhere to the plate for 90 minutes at 37° C. shaking at 350 rpm. Loosely bound cells were washed once with PBS and 80 μL of RPMI-1640 was added to the plate. The plate was further incubated for 24 hours at 37° C. shaking at 350 rpm. Media was carefully aspirated from the mature biofilm and 80 μL of RPMI-1640, or RPMI-1640 supplemented with the amino acid compound solution to be tested, was gently added to the plate. The plate was further incubated for 24 hours at 37° C. shaking at 350 rpm. Media was carefully aspirated and the biofilm was measured by optical density at 600 nm. Twelve replicates were performed for each tested condition and the reported values are normalized to the control (RPMI-1640 media only).
# [2] = test system: Candida and Staphylococcus biofilms; test: biofilm assays (sustained inhibition and disruption), bacterial and fungal; type: cell-based, Candida albicans; Staphylococcus aureus; details: in both assays (sustained inhibition and disruption)
# Method: (§1) In vitro biofilm formation was tested using two assays, sustained inhibition and disruption. Both assays assess biofilm formed on polystyrene plates. The first, tests the effects of amino acid solution on a developing biofilm, while the latter tests the effects of the solution on a pre-formed mature biofilm, both compared to media without supplemented amino acids.
# (§2) Other amino acids in the blood of animals could combat bacterial and fungal biofilm and therefore may be useful in treating these bacterial and fungal infections that would lie on the external surfaces of infected animals such as humans and could also be used to combat these pathogens on instruments and surfaces that need to be treated. Two types of biofilm assays were performed: a sustained inhibition assay and a disruption assay. The sustained inhibition assay assessed the compound's ability to prevent biofilm development throughout all stages of biofilm formation, while the disruption assay assessed the compound's ability to break up an existing mature biofilm.
# (§3) For fungal biofilm assays, all solutions were prepared in RPMI 1640 medium. All bacterial biofilm solutions were prepared in Tryptic Soy Broth (TSB), supplemented with 1% glucose (henceforth referred to as TSB-G). All subsequent procedures were performed in a manner that maintained sterility. A solution of each amino acid to be tested was prepared in weight to volume concentrations ranging from 0.1-5.0%. Amino acids were also tested in combinations. Compound solutions were homogenized with gentle agitation in the dark (4° C., 24 hours) before use.
# (§4) Fungal strains were streaked on Yeast Peptone Dextrose (YPD) agar plates and incubated at 30° C. for 48 hours. A single colony from each strain to be tested was inoculated into YPD broth and grown for 12 hours, at 30° C., shaking at 225 rpm. For the fungal biofilm inhibition assay, 1 μl of saturated overnight cell culture was added to either 80 μL of RPMI-1640 or RPMI-1640 supplemented with the amino acid compound solution to be tested, in a 384-well plate. The cells were allowed to adhere to the plate for 90 minutes at 37° C. shaking at 350 rpm. Loosely bound cells were washed once with phosphate buffered saline (PBS) and 80 μl of RPMI-1640, or RPMI-1640 supplemented with the amino acid compound solution was added to the plate. The plate was further incubated for 24 hours at 37° C. shaking at 350 rpm. Media was carefully aspirated and the biofilm was measured by optical density at 600 nm. Twelve replicates were performed for each tested condition and the reported values are normalized to the control (RPMI-1640 media only). For the fungal biofilm disruption assays, 80 μL of RPMI-1640 was added to the plate, along with 1 μL of overnight cell culture. The cells were allowed to adhere to the plate for 90 minutes at 37° C. shaking at 350 rpm. Loosely bound cells were washed once with PBS and 80 μL of RPMI-1640 was added to the plate. The plate was further incubated for 24 hours at 37° C. shaking at 350 rpm. Media was carefully aspirated from the mature biofilm and 80 μL of RPMI-1640, or RPMI-1640 supplemented with the amino acid compound solution to be tested, was gently added to the plate. The plate was further incubated for 24 hours at 37° C. shaking at 350 rpm. Media was carefully aspirated and the biofilm was measured by optical density at 600 nm. Twelve replicates were performed for each tested condition and the reported values are normalized to the control (RPMI-1640 media only).
# Bacterial strains were streaked on Blood Agar plates (5% sheep blood in Tryptic Soy Agar) and incubated at 37° C. for 24 hours. A single colony from each strain to be tested was inoculated in a TSB broth and grown for 12 hours, at 37° C. shaking at 225 rpm. For the bacterial biofilm inhibition assays, 1 μL of saturated overnight cell culture was added to either 80 μL of TSB-G, or TSB-G supplemented with the amino acid compound solution to be tested, in a 384-well plate. […]
# [3] = test system: S. aureus (MRSA) biofilms; test: in vitro biofilm disruption assay, bacterial; type: cell-based; details: Staphylococcus aureus, 24 h, disruption, S. aureus, 1% amino acid, p<0.001, read-out: Reduce B Biofilm
# Method: as §1, §2, §3
# Bacterial strains were streaked on Blood Agar plates (5% sheep blood in Tryptic Soy Agar) and incubated at 37° C. for 24 hours. A single colony from each strain to be tested was inoculated in a TSB broth and grown for 12 hours, at 37° C. shaking at 225 rpm. For the bacterial biofilm inhibition assays, 1 μL of saturated overnight cell culture was added to either 80 μL of TSB-G, or TSB-G supplemented with the amino acid compound solution to be tested, in a 384-well plate. The cells were allowed to adhere to the plate for 60 minutes at 37° C. without shaking. The media was carefully aspirated and 80 μL of TSB-G, or TSB-G supplemented with the amino acid compound solution was added to the plate. The plate was further incubated for 24 hours at 37° C. without shaking. Media was carefully aspirated and the biofilm was measured by optical density at 600 nm. Eight or twelve replicates were performed for each tested condition and the reported values are normalized to the control (TSB-G media only). For the bacterial biofilm disruption assays, 80 μL of TSB-G was added to the plate, along with 1 μL of overnight cell culture. The cells were allowed to adhere to the plate for 60 minutes at 37° C. with no shaking. The media was carefully aspirated and 80 μL of TSB-G was added to the plate. The plate was further incubated for 24 hours at 37° C. with no shaking. Media was carefully aspirated from the mature biofilm and 80 μL of TSB-G, or TSB-G supplemented with the amino acid to be tested, was gently added to the plate. The plate was further incubated for 24 hours at 37° C. without shaking. Media was aspirated and the biofilm was measured by optical density at 600 nm. Twelve replicates were performed for each tested condition and the reported values are normalized to the control (TSB-G media only).
# For disruption assay, 80 μl of TSB-G was added to the plate, along with 1 μl of overnight cell culture. The cells were allowed to adhere to the plate for 60 minutes at 37° C. with no shaking. The media was carefully aspirated and 80 μl of TSB-G was added to the plate. The plate was further incubated for 24 hours at 37° C. with no shaking. Media was carefully aspirated from the mature biofilm and 80 μl of TSB-G, or TSB-G supplemented with the amino acid to be tested, was added drop wise to the plate. The plate was further incubated for 24 hours at 37° C. with no shaking. […]
# C. albicans biofilms [4] = test: in vitro sustained inhibition biofilm assay, fungal; type: cell-based, Candida albicans; details: 1% amino acid, p<0.001
# Method: (§5) Two types of biofilm assays were performed: a sustained inhibition assay and a disruption assay.
# as §3
# as §4, with “The cells were allowed to adhere to the plate for 90 minutes at 37° C. shaking at 350 rpm. Loosely bound cells were washed once with phosphate buffered saline (PBS) and 80 μl of RPMI-1640, or RPMI-1640 supplemented with the amino acid compound solution was added to the plate. The plate was further incubated for 24 hours at 37° C. shaking at 350 rpm.” left out, “The cells were allowed to adhere to the plate for 90 minutes at 37° C. shaking at 350 rpm.” left out, “The plate was further incubated for 24 hours at 37° C. shaking at 350 rpm.” left out
# The plate was further incubated for 24 hours at 37° C. with shaking (350 rpm). Media was carefully aspirated and the biofilm was measured by optical density at 600 nm.
# C. albicans biofilms [5] = test: in vitro biofilm disruption assay, fungal; type: cell-based, Candida albicans; details: 1% amino acid, p<0.001
# Method: as §5, §3
# as §4, with “The cells were allowed to adhere to the plate for 90 minutes at 37° C. shaking at 350 rpm. Loosely bound cells were washed once with phosphate buffered saline (PBS) and 80 μl of RPMI-1640, or RPMI-1640 supplemented with the amino acid compound solution was added to the plate. The plate was further incubated for 24 hours at 37° C. shaking at 350 rpm.” left out, “The cells were allowed to adhere to the plate for 90 minutes at 37° C. shaking at 350 rpm.” left out, “The plate was further incubated for 24 hours at 37° C. shaking at 350 rpm.” left out
# The cells were allowed to adhere to the plate for 90 minutes at 37° C. with shaking (350 rpm). […] The plate was further incubated for 24 hours at 37° C. with shaking (350 rpm). […] The plate was further incubated for 24 hours at 37° C. with shaking (350 rpm). Media was carefully aspirated and the biofilm was measured by optical density at 600 nm.
smiles,measurement,setting,value
"N[C@@H](CCS)C(=O)O [Homocysteine, L-homocysteine]",effect on C. albicans biofilms in inhibition and disruption assays,[1]; Tables 4 and 5,both inhibited and disrupted
same,anti-biofilm properties against fungal biofilms,[1],reduction by less than two-fold
"N[C@@H](Cc1c[nH]cn1)C(=O)O [Histidine, L-histidine]",effect on bacterial or fungal biofilms,[2],neutral
"CCC(N)C(=O)O (stereo not shown) [2 Aminobutyric Acid, 2-aminobutyric acid]",effect on bacterial or fungal biofilms,[2],neutral
"Cn1cncc1C[C@H](N)C(=O)O [3-Methylhistidine, 3-methyl-L-histidine]",inhibition at 1 %,[3],10 to 30%
same,Promote F Biofilm,C. albicans biofilms [4],● (a single dot [i.e. ●] signifies minor effect (from about 10 to about 30% change))
same,effect on fungal biofilm growth,[1],support (improve) fungal biofilm growth
"NC(=O)CC[C@H](N)C(=O)O [Glutamine, L-glutamine]",effect on bacterial or fungal biofilms,[2],neutral
"N[C@@H](Cc1ccc(O)cc1)C(=O)O [Tyrosine, L-tyrosine]",effect on bacterial or fungal biofilms,[2],neutral
"Cn1cnc(C[C@H](N)C(=O)O)c1 [1-Methylhistidine, 1-methyl-L-histidine]",effect on bacterial or fungal biofilms,[2],neutral
"NCCO [Ethanolamine, ethanolamine]",Reduce F Biofilm,C. albicans biofilms [4],● (a single dot [i.e. ●] signifies minor effect (from about 10 to about 30% change))
same,anti-biofilm properties against fungal biofilms,[1],reduction by less than two-fold
"CC(C)[C@H](N)C(=O)O [Valine, L-valine]",inhibition at 1 %,[3],10 to 30%
same,Promote F Biofilm,C. albicans biofilms [4],● (a single dot [i.e. ●] signifies minor effect (from about 10 to about 30% change))
same,effect on fungal biofilm growth,[1],support (improve) fungal biofilm growth
"N[C@@H](Cc1c[nH]c2ccccc12)C(=O)O [Tryptophan, L-tryptophan]",effect on bacterial or fungal biofilms,[2],neutral
"N[C@@H](COP(=O)(O)O)C(=O)O [Phosphoserine, O-phospho-L-serine]",inhibition at 1 %,[3],10 to 30%
same,anti-biofilm properties against fungal biofilms,[1],reduction by less than two-fold
same,Reduce F Biofilm,C. albicans biofilms [5],● (a single dot [i.e. ●] signifies minor effect (from about 10 to about 30% change))

# Reference: patent publication US12226386B2, “Compositions and methods for treating biofilms” (The Regents of the University of California, priority 2018, dated 2025)
